Test results as given in the supplement of paper PMC8967900.

Experiments:
Experiment in all cases: selective drug sensitivity score (sDSS, relative to normal bone marrow) (sDSS (score)); higher = more potent and effective on the cell line relative to normal bone marrow cells
Settings in all cases: 72 h
[1] = system: COG-LL-355h
[2] = system: NALM-6
[3] = system: TMD5
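Further: ALL cell lines in 384-well plates, five doses spanning 10,000-fold, each plate scaled between vehicle and 100 µmol/L benzalkonium chloride controls, sDSS an adapted area-under-curve metric.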

SMILES: CC[C@@]1(O)C(=O)OCc2c1cc1n(c2=O)Cc2cc3c(CN(C)C)c(O)ccc3nc2-1 [Topotecan] (top concentration 10000 nM)
- selective drug sensitivity score [1]: 10.9
- selective drug sensitivity score [2]: 17.1
- selective drug sensitivity score [3]: 14.3

SMILES: COc1cccc2c1C(=O)c1c(O)c3c(c(O)c1C2=O)C[C@@](O)(C(=O)CO)C[C@@H]3O[C@H]1C[C@H](N)[C@@H](O)[C@H](C)O1 [Epirubicin] (top concentration 1000 nM)
- selective drug sensitivity score [1]: 3.22
- selective drug sensitivity score [2]: 3.82
- selective drug sensitivity score [3]: 1.02

SMILES: CO[C@H]1C[C@@H]2CC[C@@H](C)[C@@](O)(O2)C(=O)C(=O)N2CCCC[C@H]2C(=O)O[C@H]([C@H](C)C[C@@H]2CC[C@@H](OCCO)[C@H](OC)C2)CC(=O)[C@H](C)/C=C(\C)[C@@H](O)[C@@H](OC)C(=O)[C@H](C)C[C@H](C)/C=C/C=C/C=C/1C [Everolimus] (top concentration 100 nM)
- selective drug sensitivity score [1]: 1.5
- selective drug sensitivity score [2]: -3.8
- selective drug sensitivity score [3]: -3.8

SMILES: O=c1[nH]c(=O)n([C@H]2C[C@H](O)[C@@H](CO)O2)cc1C(F)(F)F [Trifluridine] (top concentration 10000 nM)
- selective drug sensitivity score [1]: 0.06
- selective drug sensitivity score [2]: 15
- selective drug sensitivity score [3]: -1.84

SMILES: CC[C@H](CC#N)OC(=O)N[C@@H](C)c1cccc(NC(=O)Nc2ccc(-c3cnco3)c(OC)c2)c1 [AVN944] (top concentration 10000 nM)
- selective drug sensitivity score [1]: -2.16
- selective drug sensitivity score [2]: 15.5
- selective drug sensitivity score [3]: 2.74

SMILES: CON(C)C(=O)N1N=C(c2cc(F)ccc2F)S[C@@]1(CCCN)c1ccccc1 [Filanesib] (top concentration 1000 nM)
- selective drug sensitivity score [1]: 1.7
- selective drug sensitivity score [2]: 21
- selective drug sensitivity score [3]: 10.5

SMILES: Cc1sc2c(c1C)C(c1ccc(Cl)cc1)=N[C@@H](CC(=O)NCCCCNC(=O)COc1cccc3c1C(=O)N(C1CCC(=O)NC1=O)C3=O)c1nnc(C)n1-2 (stereo not given in full) [dBET1] (top concentration 10000 nM)
- selective drug sensitivity score [1]: 6.22
- selective drug sensitivity score [2]: -4.78
- selective drug sensitivity score [3]: -13.8

SMILES: CN(Cc1cnc2nc(N)nc(N)c2n1)c1ccc(C(=O)N[C@@H](CCC(=O)O)C(=O)O)cc1 [Methotrexate] (top concentration 5000 nM)
- selective drug sensitivity score [1]: -0.42
- selective drug sensitivity score [2]: 16.4
- selective drug sensitivity score [3]: -0.42

SMILES: COc1ccc(-c2ccc3c(N4CCOC[C@@H]4C)nc(N4CCOC[C@@H]4C)nc3n2)cc1CO [AZD8055] (top concentration 10000 nM)
- selective drug sensitivity score [1]: 6.38
- selective drug sensitivity score [2]: 3.68
- selective drug sensitivity score [3]: -1.62

SMILES: CN1CCN(C2CCC(n3cc(-c4ccc(Oc5ccccc5)cc4)c4c(N)ncnc43)CC2)CC1 (stereo not given) (top concentration 10000 nM)
- selective drug sensitivity score [1]: -0.08
- selective drug sensitivity score [2]: 3.42
- selective drug sensitivity score [3]: 10.2
